One assay concerns the target T1, SMYD2 (Homo sapiens, UniProt Q9NRG4).
T1 construct: Full length SMYD2 (NP 064582.2) was cloned; His6 (N, cleaved yes); FLAG (N); made in house; host or cells: Sf9 insect cells
As to the kind of experiment: SMYD2 Biochemical Assay (3H-SAM, biotinylated peptide substrate, Flashplate). Conditions: IC50 values are an average of n = 1 to n = 50; read-out: SMYD2 Biochem IC50 (μM)*. The source says: S-adenosylmethionine (SAM), S-adenosylhomocysteine (SAH), bicine, Tween20, dimethylsulfoxide (DMSO), bovine skin gelatin (BSG), and Tris(2-carboxyethyl)phosphine hydrochloride (TCEP) were purchased from Sigma-Aldrich at the highest level of purity possible. ^3H-SAM was purchase from American Radiolabeled Chemicals with a specific activity of 80 Ci/mmol. 384-well streptavidin Flashplates were purchased from PerkinElmer.
Peptide was synthesized with a N-terminal linker-affinity tag motif and a C-terminal amide cap by 21st Century Biochemicals. The peptide was high-performance liquid chromatography (HPLC) purified to greater than 95% purity and confirmed by liquid chromatography mass spectrometry (LC-MS). The sequence was […](K-Biot)-amide. (SEQ ID No: 3)
Full length SMYD2 (NP 064582.2) was cloned into a pFastbac-Htb-lic vector with an N-terminal His6 tag and FLAG tag, preceded by a TEV protease cleavage site. The protein was expressed in Sf9 insect cells. Cells were resuspended in lysis buffer (25 mM HEPES-NaOH, pH 7.5, 200 mM NaCl, 5% glycerol, and 5 mM β-ME) and lysed by sonication. The protein was purified by Ni-NTA (Qiagen), followed by TEV cleavage to remove the His6 tag, subtractive Ni-NTA (Qiagen), and gel filtration chromatography using an […] (GE Healthcare). Purified protein was stored in 20 mM Tris-HCl, pH 8.0, 100 mM NaCl, and 1 mM TCEP.
The assays were all performed in a buffer consisting of 20 mM Bicine (pH=7.6), 1 mM TCEP, 0.005% Bovine Skin Gelatin, and 0.002% Tween20, prepared on the day of use. Compounds in 100% DMSO (1 ul) were spotted into a polypropylene 384-well V-bottom plates (Greiner) using a Platemate Plus outfitted with a 384-channel head (Thermo Scientific). DMSO (1 ul) was added to Columns 11, 12, 23, 24, rows A-H for the maximum signal control and 1 ul of SAH, a known product and inhibitor of SMYD2, was added to columns 11, 12, 23, 24, rows I-P for the minimum signal control. A cocktail (40 ul) containing the SMYD2 enzyme was added by Multidrop Combi (Thermo-Fisher). The compounds were allowed to incubate with SMYD2 for 30 min at room temperature, then a cocktail (10 ul) containing ^3H-SAM and peptide was added to initiate the reaction (final volume=51 ul). The final concentrations of the components were as follows: SMYD2 was 1.5 nM, ^3H-SAM was 10 nM, and peptide was 60 nM, SAH in the minimum signal control wells was 1000 uM, and the DMSO concentration was 2%. The assays were stopped by the addition of non-radioactive SAM (10 ul) to a final concentration of 600 uM, which dilutes the ^3H-SAM to a level where its incorporation into the peptide substrate is no longer detectable. 50 ul of the reaction in the 384-well polypropylene plate was then transferred to a 384-well Flashplate and the biotinylated peptides were allowed to bind to the streptavidin surface for at least 1 hour before being washed three times with 0.1% Tween20 in a Biotek ELx405 plate washer. The plates were then read in a PerkinElmer TopCount plate reader to measure the quantity of ^3H-labeled peptide bound to the Flashplate surface, measured as disintegrations per minute (dpm) or alternatively, referred to as counts per minute (cpm).
Where dpm=disintegrations per minute, cmpd=signal in assay well, and min and max are the respective minimum and maximum signal controls.
Where top and bottom are the normally allowed to float, but may be fixed at 100 or 0 respectively in a 3-parameter fit. The Hill Coefficient normally allowed to float but may also be fixed at 1 in a 3-parameter fit. I is the compound concentration.
SMYD2 biochemical assay data for representative Compounds of the Disclosure are presented in Tables 1-3 in the column titled “SMYD2 Biochem IC50 (μM).”
T1 sequence (Q9NRG4 whole entry): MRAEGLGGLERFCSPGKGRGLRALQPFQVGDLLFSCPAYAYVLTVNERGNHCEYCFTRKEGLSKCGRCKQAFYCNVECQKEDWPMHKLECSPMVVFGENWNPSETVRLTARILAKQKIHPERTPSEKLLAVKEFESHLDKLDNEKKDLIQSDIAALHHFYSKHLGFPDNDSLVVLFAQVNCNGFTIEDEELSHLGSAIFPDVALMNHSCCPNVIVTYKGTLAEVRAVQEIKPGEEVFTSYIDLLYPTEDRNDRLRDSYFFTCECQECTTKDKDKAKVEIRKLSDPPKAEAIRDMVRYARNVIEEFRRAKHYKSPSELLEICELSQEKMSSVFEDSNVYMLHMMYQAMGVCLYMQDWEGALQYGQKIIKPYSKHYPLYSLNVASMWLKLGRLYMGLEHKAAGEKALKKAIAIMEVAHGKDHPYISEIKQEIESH
For the molecule `CCOC(=O)C(C)CN1C[C@H](C)[C@H](NC(=O)c2cc(C3CC3)on2)C1` (relative stereo) [compound 186, cis-ethyl 3-[3-(5-cyclopropyl-1,2-oxazole-3-amido)-4-methylpyrrolidin-1-yl]-2-methylpropanoate], the IC50 (commonly the concentration that inhibits the measured activity by half) was determined as 20.8 µM.
Regarding `C[C@H]1CN(Cc2cc3ccccc3nc2Cl)C[C@H]1NC(=O)c1cc(C2CC2)on1` (racemic) [compound 269, (±)-cis-N-[1-[(2-chloro-quinolin-3-yl)methyl]-4-methylpyrrolidin-3-yl]-5-cyclopropyl-1,2-oxazole-3-carboxamide], the IC50 was 4.17 µM.
Consider `C[C@H]1CN(c2ccccc2Cl)C[C@H]1NC(=O)c1cc(C2CC2)on1` (racemic) [compound 301, (±)-cis-N-[1-(2-chloro-phenyl)-4-methyl-pyrrolidin-3-yl]-5-cyclo-propyl-1,2-oxazole-3-carboxamide], for which the IC50 was over 50 µM.
For the molecule `C[C@@H]1CN(c2cnccn2)C[C@H]1NC(=O)c1cc(C2CC2)on1` (racemic) [compound 292, (±)-trans-5-cyclopropyl-N-[4-methyl-1-(pyrazin-2-yl)pyrrolidin-3-yl]-1,2-oxazole-3-carboxamide], the IC50 was over 50 µM.
Take `CC[C@H]1CN(C)C[C@@H]1NC(=O)c1cc(C2CC2)on1` (racemic) [compound 157, (±)-trans-5-cyclopropyl-N-[4-ethyl-1-methyl-pyrrolidin-3-yl]-1,2-oxazole-3-carboxamide]: the IC50 was found to be 45.3 µM.
Still for that read-out and setting: to `CC(C)N1C[C@H](C)[C@H](NC(=O)c2cc(C(F)(F)F)on2)C1` (racemic) [compound 348, (±)-cis-N-[4-methyl-1-(propan-2-yl)pyrrolidin-3-yl]-5-(trifluoromethyl)-1,2-oxazole-3-carboxamide] belongs 6.68 µM; to `CC(C)N1C[C@H](C)[C@H](NC(=O)c2cc(C#N)on2)C1` (racemic) [compound 341, (±)-cis-5-cyano-N-[4-methyl-1-(propan-2-yl)pyrrolidin-3-yl]-1,2-oxazole-3-carboxamide], 22.8 µM.
In the case of `CC(C)N1C[C@@H](C)[C@H](NC(=O)c2cc(C(F)F)on2)C1` (racemic) [compound 281, (±)-trans-5-(difluoro-methyl)-N-[4-methyl-1-(propan-2-yl)pyrrolidin-3-yl]-1,2-oxazole-3-carboxamide], the IC50 was over 50 µM.
Same read-out and setting: to `C[C@H]1CN(CC2CCNCC2)C[C@H]1NC(=O)c1cc(C2CC2)on1` (racemic) [compound 164, (±)-cis-5-cyclopropyl-N-[4-methyl-1-(piperidin-4-ylmethyl)pyrrolidin-3-yl]-1,2-oxazole-3-carboxamide] belongs 4.78 µM; to `CC(C)CCN1C[C@@H](C)[C@H](NC(=O)c2cc(C3CC3)on2)C1` (racemic) [compound 143, (±)-trans-5-cyclopropyl-N-[4-methyl-1-(3-methylbutyl)pyrrolidin-3-yl]-1,2-oxazole-3-carboxamide], over 50 µM; to `C[C@H]1CN(Cc2ccccn2)C[C@H]1NC(=O)c1cc(C2CC2)on1` (racemic) [compound 121, (±)-cis-5-cyclopropyl-N-[4-methyl-1-(pyridin-2-ylmethyl)pyrrolidin-3-yl]-1,2-oxazole-3-carboxamide], 15.7 µM.
Turning to `C[C@H]1CN(Cc2cnc3ncccn23)C[C@H]1NC(=O)c1cc(C2CC2)on1` (racemic) [compound 211, (±)-cis-5-cyclopropyl-N-[1-{imidazo[1,2-a]pyrimidin-3-ylmethyl}-4-methylpyrrolidin-3-yl]-1,2-oxazole-3-carboxamide], the IC50 was over 50 µM.
On the same count and under the same terms, to `COc1cccc(CN2C[C@H](C)[C@H](NC(=O)c3cc(C4CC4)on3)C2)c1OC` (racemic) [compound 233, (±)-cis-5-cyclopropyl-N-[1-[(2,3-dimethoxy-phenyl)methyl]-4-methylpyrrolidin-3-yl]-1,2-oxazole-3-carboxamide] belongs 2.27 µM; to `C[C@H]1CN(Cc2cccnc2)C[C@H]1NC(=O)c1cc(C2CC2)on1` (racemic) [compound 120, (±)-cis-5-cyclopropyl-N-[4-methyl-1-(pyridin-3-ylmethyl)pyrrolidin-3-yl]-1,2-oxazole-3-carboxamide], 10.6 µM.
For `CC(C)N1C[C@@H](NC(=O)c2cc(C3CC3)on2)C[C@H]1COCC#CC1CCCCC1` (racemic) [compound 239, (±)-cis-N-[5-{[(3-cyclo-hexylprop-2-yn-1-yl)oxy]methyl}-1-(propan-2-yl)pyrrolidin-3-yl]-5-cyclopropyl-1,2-oxazole-3-carboxamide], the IC50 is over 50 µM.
Still for that read-out and setting: to `C[C@H]1CN(Cc2c[nH]c3ccccc23)C[C@H]1NC(=O)c1cc(C2CC2)on1` (racemic) [compound 194, (±)-cis-5-cyclopropyl-N-[1-(1H-indol-3-ylmethyl)-4-methyl-pyrrolidin-3-yl]-1,2-oxazole-3-carboxamide] belongs 6.86 µM; to `CC(C)N1CC(CNC(=O)c2ccccc2)C(NC(=O)c2cc(C3CC3)on2)C1` (stereo not drawn) [compound 237, 5-cyclopropyl-N-{4-[(phenylformamido)methyl]-1-(propan-2-yl)pyrrolidin-3-yl}-1,2-oxazole-3-carboxamide], 10.5 µM; to `C[C@@H]1CN(CC2CCN(C)CC2)C[C@H]1NC(=O)c1cc(C2CC2)on1` (racemic) [compound 158, (±)-trans-5-cyclopropyl-N-[4-methyl-1-[(1-methylpiperidin-4-yl)methyl]pyrrolidin-3-yl]-1,2-oxazole-3-carboxamide], over 50 µM.
The same measure, in the same setting: to `C[C@@H]1CN(Cc2ccnn2C)C[C@H]1NC(=O)c1cc(C2CC2)on1` (racemic) [compound 184, (±)-trans-5-cyclopropyl-N-[4-methyl-1-[(1-methyl-1H-pyrazol-5-yl)methyl]pyrrolidin-3-yl]-1,2-oxazole-3-carboxamide] belongs over 50 µM.
In the case of `C[C@@H]1CN(c2ccncc2)C[C@H]1NC(=O)c1cc(C2CC2)on1` (racemic) [compound 313, (±)-trans-5-cyclopropyl-N-[4-methyl-1-(pyridin-4-yl)pyrrolidin-3-yl]-1,2-oxazole-3-carboxamide], the IC50 is over 50 µM.

The same assay, now with this note: Table 1; average of n = 1 to n = 50; read-out: SMYD2 Biochem IC50.
For `O=C(N[C@@H]1C[C@H](CO)N(C2CC2)C1)c1cc(C2CC2)on1` (racemic) [compound 49, (±)-cis-5-cyclopropyl-N-(1-cyclopropyl-5-(hydroxy-methyl)pyrrolidin-3-yl)isoxazole-3-carboxamide], the IC50 is over 50 µM.

The same assay, now with this note: Table 2; average of n = 1 to n = 50; read-out: SMYD2 Biochem IC50.
For `C[C@@H]1CN(C(=O)CN)C[C@@H]1NC(=O)c1cc(C2CC2)on1` (racemic) [compound 68, (±)-cis-5-cyclopropyl-N-(1-glycyl-4-methylpyrrolidin-3-yl)isoxazole-3-carboxamide], the IC50 is over 50 µM.
Same read-out and setting: to `C[C@@H]1CN(S(C)(=O)=O)C[C@H]1NC(=O)c1cc(C2CC2)on1` (racemic) [compound 90, (±)-trans-5-cyclopropyl-N-(4-methyl-1-(methylsulfonyl)pyrrolidin-3-yl)isoxazole-3-carboxamide] belongs over 50 µM; to `C[C@@H]1CN(C2CCN(C)CC2)C[C@H]1NC(=O)c1cc(C2CC2)on1` (racemic) [compound 105, (±)-trans-5-cyclopropyl-N-((3S,4R)-4-methyl-1-(1-methylpiperidin-4-yl)pyrrolidin-3-yl)isoxazole-3-carboxamide], over 50 µM.

For the origin of these results see US20170253601A1, “Substituted Pyrrolidine Compounds” (EPIZYME, INC., priority 2014, published 2017).
